Source: the supplement of paper PMC13380429

Legend:
Conditions in all cases: 72 h
[1] = tested on: U2OS; experiment: cell viability relative to DMSO; higher = less toxic
[2] = tested on: Vero E6; experiment: as above
[3] = tested on: Calu-3; experiment: as above
[4] = tested on: HepG2; experiment: as above
[5] = tested on: Caco-2; experiment: as above
[6] = tested on: U2OS; experiment: drug sensitivity score (DSS) for viability; higher = more toxic; extreme values may be limits of the assay
[7] = tested on: Vero E6; experiment: as above
[8] = tested on: Calu-3; experiment: as above
[9] = tested on: HepG2; experiment: as above
[10] = tested on: Caco-2; experiment: as above
[11] = tested on: U2OS; experiment: relative viability EC50 (midpoint between 100% and the lowest measured viability); higher = less toxic
[12] = tested on: Vero E6; experiment: as above
[13] = tested on: Calu-3; experiment: as above
[14] = tested on: HepG2; experiment: as above
[15] = tested on: Caco-2; experiment: as above

Compound | cell viability ([1]; 1 nM) [%] | cell viability ([1]; 10 nM) [%] | cell viability ([1]; 100 nM) [%] | cell viability ([1]; 1000 nM) [%] | cell viability ([1]; 10000 nM) [%] | cell viability ([2]; 1 nM) [%] | cell viability ([2]; 10 nM) [%] | cell viability ([2]; 100 nM) [%] | cell viability ([2]; 1000 nM) [%] | cell viability ([2]; 10000 nM) [%] | cell viability ([3]; 1 nM) [%] | cell viability ([3]; 10 nM) [%] | cell viability ([3]; 100 nM) [%] | cell viability ([3]; 1000 nM) [%] | cell viability ([3]; 10000 nM) [%] | cell viability ([4]; 1 nM) [%] | cell viability ([4]; 10 nM) [%] | cell viability ([4]; 100 nM) [%] | cell viability ([4]; 1000 nM) [%] | cell viability ([4]; 10000 nM) [%] | cell viability ([5]; 1 nM) [%] | cell viability ([5]; 10 nM) [%] | cell viability ([5]; 100 nM) [%] | cell viability ([5]; 1000 nM) [%] | cell viability ([5]; 10000 nM) [%] | drug sensitivity score [6] | drug sensitivity score [7] | drug sensitivity score [8] | drug sensitivity score [9] | drug sensitivity score [10] | relative viability EC50 [11] [µM] | relative viability EC50 [12] [µM] | relative viability EC50 [13] [µM] | relative viability EC50 [14] [µM] | relative viability EC50 [15] [µM]
O=C(NCCCN1CCCCCC1)C(c1ccccc1)C1CCCCC1 (stereo not given) | 104 | 101 | 101 | 106 | 95.7 | 95.8 | 96.1 | 96.5 | 99.6 | 94.9 | 111 | 94.1 | 102 | 104 | 98.8 | 107 | 107 | 100 | 89 | 84.7 | 101 | 101 | 105 | 107 | 95 | 0 | 0 | 0 | 1 | 0 | > 10 | > 10 | > 10 | > 10 | > 10
CN(C(=O)CN1C(=O)COc2cc(Cl)c(Cl)cc21)[C@@H](CN1CCCC1)c1ccc(-c2cccc(C(N)=O)c2)cc1 | 100 | 97.1 | 104 | 94.1 | 3.5 | 96.9 | 97 | 94.9 | 97.1 | 2.8 | 109 | 111 | 102 | 114 | 7 | 95 | 104 | 91.5 | 99 | 10.5 | 97.9 | 99 | 101 | 97.1 | 7.2 | 6.2 | 5.8 | 4.3 | 5.1 | 5.5 | 2.68 | 2.94 | 3.79 | 3.09 | 2.94
CCOC(=O)C1=C[C@@H](OC(CC)CC)[C@H](NC(C)=O)[C@@H](N)C1 [oseltamivir-phosphate] | 93.4 | 104 | 97.9 | 97.6 | 102 | 95.4 | 93.2 | 99.1 | 92.4 | 103 | 99.4 | 96.9 | 104 | 103 | 106 | 107 | 98.6 | 98 | 106 | 107 | 79.7 | 92.2 | 92.6 | 95.9 | 94 | 0 | 0 | 0 | 0 | 0 | > 10 | > 10 | > 10 | > 10 | > 10
O=C(O)c1ccc(-c2ccc3cc(O)c(C45CC6CC(CC(C6)C4)C5)cc3c2)cc1 [CD-1530] | 98.2 | 96 | 97.7 | 93 | 86.2 | 93.4 | 103 | 95.8 | 106 | 103 | 95.9 | 99.6 | 98.8 | 98.5 | 88 | 108 | 102 | 97.4 | 124 | 106 | 90.9 | 98.9 | 94.9 | 84.4 | 88 | 0.1 | 0 | 0.1 | 0 | 0.4 | > 10 | > 10 | > 10 | > 10 | > 10
C[C@@H]1CN(c2c(F)c(N)c3c(=O)c(C(=O)O)cn(C4CC4)c3c2F)C[C@H](C)N1 [sparfloxacin] | 101 | 102 | 95.9 | 101 | 99 | 98.6 | 103 | 103 | 98.6 | 96 | 97.6 | 93 | 106 | 110 | 97.5 | 110 | 98.6 | 111 | 94.7 | 92.5 | 96.3 | 101 | 95.1 | 93.4 | 98 | 0 | 0 | 0 | 0 | 0 | > 10 | > 10 | > 10 | > 10 | > 10
O=C(O)CC[C@H]1CC[C@@](c2cc(F)ccc2F)(S(=O)(=O)c2ccc(Cl)cc2)CC1 [MK-0752] | 94.9 | 105 | 96 | 102 | 97.9 | 96 | 99.7 | 94.5 | 95.5 | 103 | 96.3 | 96.3 | 100 | 101 | 97.8 | 100 | 96.1 | 98.9 | 92.6 | 108 | 96.5 | 106 | 98.2 | 99.2 | 99.5 | 0 | 0 | 0 | 0 | 0 | > 10 | > 10 | > 10 | > 10 | > 10
CC(=O)OCC(=O)NCCCOc1cccc(CN2CCCCC2)c1 [roxatidine-acetate] | 96 | 95 | 98.7 | 93.9 | 97.6 | 106 | 106 | 99.1 | 103 | 99.2 | 107 | 111 | 103 | 99.5 | 99.8 | 94.3 | 107 | 95.5 | 95.4 | 91.1 | 103 | 91.5 | 97.1 | 101 | 93.9 | 0 | 0 | 0 | 0 | 0 | > 10 | > 10 | > 10 | > 10 | > 10
CC12CCC(C(=O)N(CCCCN3CCN(c4ccccn4)CC3)C1=O)C2(C)C (stereo not given) [piricapiron] | 101 | 103 | 99.1 | 101 | 95.6 | 97.2 | 99.8 | 101 | 93.5 | 104 | 100 | 105 | 101 | 93.2 | 85.9 | 106 | 101 | 101 | 102 | 97.6 | 87.3 | 99.7 | 96.5 | 98.1 | 93 | 0 | 0 | 0.6 | 0 | 0 | > 10 | > 10 | > 10 | > 10 | > 10
CCOC(=O)[C@@H](N)Cc1ccc(-c2cc(O[C@H](c3ccc(Cl)cc3-n3ccc(C)n3)C(F)(F)F)nc(N)n2)cc1 [telotristat-ethyl] | 96.6 | 93.5 | 93.6 | 100 | 96.4 | 96.6 | 91.8 | 95.2 | 95.5 | 107 | 96.6 | 99.7 | 106 | 91.1 | 95.4 | 97.7 | 106 | 94.5 | 102 | 113 | 97.3 | 89.6 | 104 | 99.4 | 88.6 | 0 | 0 | 0 | 0 | 0 | > 10 | > 10 | > 10 | > 10 | > 10
COc1nc(C)nc(Cl)c1NC1=NCCN1 [moxonidine] | 98.7 | 101 | 97.1 | 102 | 99.3 | 102 | 100 | 93.2 | 94.5 | 106 | 96.2 | 93.5 | 90 | 101 | 97.5 | 103 | 101 | 99.3 | 104 | 95.5 | 97.1 | 95.6 | 95.8 | 105 | 88.7 | 0 | 0 | 0 | 0 | 0 | > 10 | > 10 | > 10 | > 10 | > 10
O=S(=O)(N[C@H](CO)C(C(F)(F)F)C(F)(F)F)c1ccc(Cl)s1 [begacestat] | 100 | 94.2 | 102 | 89.7 | 93.6 | 99.6 | 101 | 105 | 95.7 | 84.6 | 99.4 | 102 | 108 | 104 | 96.7 | 99.1 | 106 | 88 | 96.5 | 96.6 | 118 | 102 | 99.8 | 96.1 | 109 | 0 | 0.7 | 0 | 0 | 0 | > 10 | > 10 | > 10 | > 10 | > 10
CC1(C)C(=O)N(CCN2CCC(C(=O)c3ccc(F)cc3)CC2)c2ccccc21 | 97.7 | 96.3 | 98.2 | 95.9 | 97.8 | 96.1 | 102 | 91.8 | 94.2 | 106 | 99.5 | 91.4 | 90.6 | 98.4 | 89.8 | 95.3 | 102 | 90.8 | 97 | 87.8 | 88.5 | 102 | 104 | 97.2 | 91.6 | 0 | 0 | 0 | 0 | 0 | > 10 | > 10 | > 10 | > 10 | > 10
c1ccc(C2CC2)c(OCC2=NCCN2)c1 [cirazoline] | 94.2 | 95.7 | 99.5 | 97.6 | 98.1 | 93.7 | 97.2 | 95.8 | 106 | 107 | 108 | 97.2 | 99.3 | 107 | 98.6 | 95.5 | 97.6 | 94.8 | 107 | 110 | 97.1 | 95 | 102 | 90.4 | 113 | 0 | 0 | 0 | 0 | 0 | > 10 | > 10 | > 10 | > 10 | > 10
C[C@H]1O[C@@H](O[C@H]2[C@@H](O)C[C@H](O[C@H]3[C@@H](O)C[C@H](O[C@H]4CC[C@@]5(C)[C@H](CC[C@@H]6[C@@H]5C[C@@H](O)[C@]5(C)[C@@H](C7=CC(=O)OC7)CC[C@]65O)C4)O[C@@H]3C)O[C@@H]2C)C[C@H](O)[C@@H]1O [digoxin] | 97.3 | 96.1 | 82.7 | 4.6 | 4.8 | 95.1 | 94.9 | 5.8 | 1.2 | 1.3 | 101 | 102 | 96.4 | 26.5 | 12.8 | 107 | 105 | 72 | 16.4 | 8.7 | 97.7 | 99.5 | 65.7 | 21 | 20.3 | 20.1 | 30.2 | 14 | 18.9 | 18.9 | 0.182 | 0.031 | 0.449 | 0.177 | 0.114
